In patent US10208047B2, “Tertiary alcohol imidazopyrazine BTK inhibitors” (Merck Sharp & Dohme Corp., priority 2014, dated 2019) one finds IC50 data, which are given here for 18 molecules.

In this assay the target is BTK enzyme (recombinant full-length BTK, hBTK) (Homo sapiens (Human), UniProt Q06187). Put plainly: Btk enzyme activity assay, LANCE TR-FRET. The assay is classed as biochemical. The conditions noted are these: 50 pM hBTK, 2 μM biotin-A5-peptide, 25 μM ATP, 60 minute compound & enzyme incubation, compound range 1 μM to 0.017 nM, read-out: BTK binding IC50. How it is done: Btk Enzyme Activity Assay Methods
BTK enzyme (recombinant full-length BTK, hBTK), sequence (Q06187 whole entry): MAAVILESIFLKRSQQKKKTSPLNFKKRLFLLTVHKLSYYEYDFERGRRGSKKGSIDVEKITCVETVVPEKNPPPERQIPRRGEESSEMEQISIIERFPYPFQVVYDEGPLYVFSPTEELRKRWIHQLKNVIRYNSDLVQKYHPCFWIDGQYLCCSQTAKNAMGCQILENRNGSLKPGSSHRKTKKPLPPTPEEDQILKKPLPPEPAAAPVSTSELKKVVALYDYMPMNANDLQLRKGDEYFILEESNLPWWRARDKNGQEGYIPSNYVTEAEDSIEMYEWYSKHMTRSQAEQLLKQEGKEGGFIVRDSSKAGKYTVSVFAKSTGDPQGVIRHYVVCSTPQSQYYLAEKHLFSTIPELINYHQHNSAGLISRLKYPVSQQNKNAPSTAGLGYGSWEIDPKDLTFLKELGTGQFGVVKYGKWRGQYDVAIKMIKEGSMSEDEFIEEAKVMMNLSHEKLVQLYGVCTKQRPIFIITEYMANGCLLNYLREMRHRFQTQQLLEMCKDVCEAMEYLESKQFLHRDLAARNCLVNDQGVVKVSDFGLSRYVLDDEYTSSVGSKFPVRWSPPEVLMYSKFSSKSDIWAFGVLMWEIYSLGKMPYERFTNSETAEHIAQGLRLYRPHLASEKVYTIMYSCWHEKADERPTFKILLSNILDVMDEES
BTK enzymatic activity was determined with the LANCE (Lanthanide Chelate Excite) TR-FRET (Time-resolved fluorescence resonance energy transfer) assay. In this assay, the potency (IC50) of each compound was determined from an eleven point (1:3 serial dilution; final compound concentration range in assay from 1 μM to 0.017 nM) titration curve using the following outlined procedure. To each well of a black non-binding surface Corning 384-well microplate (Corning Catalog #3820), 5 nL of compound (2000 fold dilution in final assay volume of 10 μL) was dispensed, followed by the addition of 7.5 μL of 1× kinase buffer (50 mM Hepes 7.5, 10 mM MgCl2, 0.01% Brij-35, 1 mM EGTA, 0.05% BSA & 1 mM DTT) containing 5.09 pg/μL (66.67 pM) of BTK enzyme (recombinant protein from baculovirus-transfected Sf9 cells: full-length BTK, 6HIS-tag cleaved). Following a 60 minute compound & enzyme incubation, each reaction was initiated by the addition of 2.5 μL 1× kinase buffer containing 8 μM biotinylated “A5” peptide (Biotin-EQEDEPEGDYFEWLE-NH2) (SEQ.ID.NO.: 1), and 100 μM ATP. The final reaction in each well of 10 μL consists of 50 pM hBTK, 2 μM biotin-A5-peptide, and 25 μM ATP. Phosphorylation reactions were allowed to proceed for 120 minutes. Reactions were immediately quenched by the addition of 20 uL of 1× quench buffer (15 mM EDTA, 25 mM Hepes 7.3, and 0.1% Triton X-100) containing detection reagents (0.626 nM of LANCE-Eu-W1024-anti-phosphoTyrosine antibody, PerkinElmer and 86.8 nM of Streptavidin-conjugated Dylight 650, Dyomics/ThermoFisher Scientific). After 60 minutes incubation with detection reagents, reaction plates were read on a PerkinElmer EnVision plate reader using standard TR-FRET protocol. Briefly, excitation of donor molecules (Eu-chelate:anti-phospho-antibody) with a laser light source at 337 nm produces energy that can be transferred to Dylight-650 acceptor molecules if this donor:acceptor pair is within close proximity. Fluorescence intensity at both 665 nm (acceptor) and 615 nm (donor) are measured and a TR-FRET ratio calculated for each well (acceptor intensity/donor intensity). IC50 values were determined by 4 parameter robust fit of TR-FRET ratio values vs. (Log10) compound concentrations.

Take `CC1(C(=O)O)CCC(C)(c2nc(-c3ccc([C@@](C)(O)c4cccc(C(F)(F)F)c4)cc3)c3c(N)nccn23)CC1` (stereo partly drawn) [Example 1, (R)-4-(8-amino-1-(4-(1-hydroxy-1-(3-(trifluoromethyl)phenyl)ethyl)phenyl)imidazo[1,5-a]pyrazin-3-yl)-1,4-dimethylcyclohexanecarboxylic acid]: the IC50 is 39.4 nM.

Regarding `C[C@](O)(c1ccc(-c2nc(C34CCC(C(=O)O)(CC3)CC4)n3ccnc(N)c23)cc1)c1cccc(C(F)(F)F)c1` [Example 2, 4-[8-amino-1-(4-{(1S)-1-hydroxy-1-[3-(trifluoromethyl)phenyl]ethyl}phenyl)imidazo[1,5-a]pyrazin-3-yl]bicyclo[2.2.2]octane-1-carboxylic acid], the IC50 was 5.8 nM. The result for `C[C@@](O)(c1ccc(-c2nc(C34CCC(C(=O)O)(CC3)CC4)n3ccnc(N)c23)cc1)c1cccc(C(F)(F)F)c1` [Example 3, 4-[8-amino-1-(4-{(1R)-1-hydroxy-1-[3-(trifluoromethyl)phenyl]ethyl}phenyl)imidazo[1,5-a]pyrazin-3-yl]bicyclo[2.2.2]octane-1-carboxylic acid] reads 775 nM. Take `CC(C)[C@]1(C(=O)O)CC[C@H](c2nc(-c3ccc([C@](C)(O)c4cccc(C(F)(F)F)c4)cc3)c3c(N)nccn23)C1` [Example 4, (1S,3S)-3-[8-amino-1-(4-{(1S)-1-hydroxy-1-[3-(trifluoromethyl)phenyl]ethyl}phenyl)imidazo[1,5-a]pyrazin-3-yl]-1-(1-methylethyl)cyclopentanecarboxylic acid]: the IC50 came to 1000 nM. The result for `CC(C)[C@]1(C(=O)O)CC[C@H](c2nc(-c3ccc([C@@](C)(O)c4cccc(C(F)(F)F)c4)cc3)c3c(N)nccn23)C1` [Example 5, (1S,3S)-3-[8-amino-1-(4-{(1R)-1-hydroxy-1-[3-(trifluoromethyl)phenyl]ethyl}phenyl)imidazo[1,5-a]pyrazin-3-yl]-1-(1-methylethyl)cyclopentanecarboxylic acid] reads 19 nM; that for `C[C@@](O)(c1ccc(-c2nc(C34CCC(C(=O)O)(CC3=O)C(=O)C4)n3ccnc(N)c23)cc1)c1cccc(C(F)(F)F)c1` (stereo partly drawn) [Example 6, 4-[8-amino-1-(4-{(1R)-1-hydroxy-1-[3-(trifluoromethyl)phenyl]ethyl}phenyl)imidazo[1,5-a]pyrazin-3-yl]-2,5-dioxobicyclo[2.2.2]octane-1-carboxylic acid], 52 nM.

As for `C[C@@](O)(c1ccc(-c2nc(C3(C(=O)O)CC3)n3ccnc(N)c23)cc1)c1cccc(C(F)(F)F)c1` [Example 7, 1-[8-amino-1-(4-{(1R)-1-hydroxy-1-[3-(trifluoromethyl)phenyl]ethyl}phenyl)imidazo[1,5-a]pyrazin-3-yl]cyclopropanecarboxylic acid], the IC50 came out at 614 nM. The result for `C[C@@](O)(c1ccc(-c2nc(C34CCC(C(=O)O)(CC3)C4)n3ccnc(N)c23)cc1)c1cccc(C(F)(F)F)c1` [Example 8, 4-[8-amino-1-(4-{(1R)-1-hydroxy-1-[3-(trifluoromethyl)phenyl]ethyl}phenyl)imidazo[1,5-a]pyrazin-3-yl]bicyclo[2.2.1]heptane-1-carboxylic acid] reads 1.1 nM; that for `C[C@@](O)(c1ccc(-c2nc(C34CCCC(C(=O)O)(CC3)CC4)n3ccnc(N)c23)cc1)c1cccc(C(F)(F)F)c1` [Example 9, 5-[8-amino-1-(4-{(1R)-1-hydroxy-1-[3-(trifluoromethyl)phenyl]ethyl}phenyl)imidazo[1,5-a]pyrazin-3-yl]bicyclo[3.2.2]nonane-1-carboxylic acid], 7 nM. As to `C[C@@](O)(c1ccc(-c2nc(C3(C(=O)O)CCOCC3)n3ccnc(N)c23)cc1)c1cccc(C(F)(F)F)c1` [Example 10, 4-[8-amino-1-(4-{(1R)-1-hydroxy-1-[3-(trifluoromethyl)phenyl]ethyl}phenyl)imidazo[1,5-a]pyrazin-3-yl]tetrahydro-2H-pyran-4-carboxylic acid], the half-maximal inhibitory concentration (IC50) was determined as 294 nM. `CC1(C)[C@H](c2nc(-c3ccc([C@@](C)(O)c4cccc(C(F)(F)F)c4)cc3)c3c(N)nccn23)CC[C@]1(C)C(=O)O` [Example 11, (1S,3R)-3-[8-amino-1-(4-{(1R)-1-hydroxy-1-[3-(trifluoromethyl)phenyl]ethyl}phenyl)imidazo[1,5-a]pyrazin-3-yl]-1,2,2-trimethylcyclopentanecarboxylic acid]: the half-maximal inhibitory concentration (IC50) was determined as 5 nM. The result for `C[C@@](O)(c1ccc(-c2nc(C34CCC(C(=O)O)(CC3(F)F)C(F)(F)C4)n3ccnc(N)c23)cc1)c1cccc(C(F)(F)F)c1` (stereo partly drawn) [Example 12, 4-[8-amino-1-(4-{(1R)-1-hydroxy-1-[3-(trifluoromethyl)phenyl]ethyl}phenyl)imidazo[1,5-a]pyrazin-3-yl]-2,2,5,5-tetrafluorobicyclo[2.2.2]octane-1-carboxylic acid] reads 17.3 nM; that for `CC1(C)[C@@H](c2nc(-c3ccc([C@@](C)(O)c4cccc(C(F)(F)F)c4)cc3)c3c(N)nccn23)CC[C@@]1(C)C(=O)O` [Example 13, (1R,3S)-3-[8-amino-1-(4-{(1R)-1-hydroxy-1-[3-(trifluoromethyl)phenyl]ethyl}phenyl)imidazo[1,5-a]pyrazin-3-yl]-1,2,2-trimethylcyclopentanecarboxylic acid], 86 nM; that for `CC(C)[C@]1(C(=O)O)CCC[C@@H](c2nc(-c3ccc([C@](C)(O)c4cccc(C(F)(F)F)c4)cc3)c3c(N)nccn23)C1` [Example 14, (1S,3R)-3-[8-amino-1-(4-{(1S)-1-hydroxy-1-[3-(trifluoromethyl)phenyl]ethyl}phenyl)imidazo[1,5-a]pyrazin-3-yl]-1-(1-methylethyl)cyclohexanecarboxylic acid], 1000 nM.

Take `CC(C)[C@@]1(C(=O)O)CCC[C@H](c2nc(-c3ccc([C@](C)(O)c4cccc(C(F)(F)F)c4)cc3)c3c(N)nccn23)C1` [Example 15, (1R,3S)-3-[8-amino-1-(4-{(1S)-1-hydroxy-1-[3-(trifluoromethyl)phenyl]ethyl}phenyl)imidazo[1,5-a]pyrazin-3-yl]-1-(1-methylethyl)cyclohexanecarboxylic acid]: the IC50 was found to be 104 nM. Next, `C[C@]1(C(=O)O)CC[C@](C)(c2nc(-c3ccc([C@@](C)(O)c4cccc(C(F)(F)F)c4)cc3)c3c(N)nccn23)C1` [Example 16, (1S,3S)-3-[8-amino-1-(4-{(1R)-1-hydroxy-1-[3-(trifluoromethyl)phenyl]ethyl}phenyl)imidazo[1,5-a]pyrazin-3-yl]-1,3-dimethylcyclopentanecarboxylic acid]: 7.6 nM; `C[C@@]1(C(=O)O)CC[C@](C)(c2nc(-c3ccc([C@@](C)(O)c4cccc(C(F)(F)F)c4)cc3)c3c(N)nccn23)C1` [Example 17, (1R,3S)-3-[8-amino-1-(4-{(1R)-1-hydroxy-1-[3-(trifluoromethyl)phenyl]ethyl}phenyl)imidazo[1,5-a]pyrazin-3-yl]-1,3-dimethylcyclopentanecarboxylic acid]: 55.1 nM; `C[C@]1(C(=O)O)CC[C@@](C)(c2nc(-c3ccc([C@@](C)(O)c4cccc(C(F)(F)F)c4)cc3)c3c(N)nccn23)C1` [Example 18, (1S,3R)-3-[8-amino-1-(4-{(1R)-1-hydroxy-1-[3-(trifluoromethyl)phenyl]ethyl}phenyl)imidazo[1,5-a]pyrazin-3-yl]-1,3-dimethylcyclopentanecarboxylic acid]: 178 nM.
